Peptide text beside a SMILES is read from it.
Tested on: human epidermoid cancer (HEp-2) cells
Test: MTT cell viability (cytotoxicity) assay
Conditions: 24 and 48 hours, concentrations up to 50 μg/ml
Method: The peptides and carboxylated gold nanoparticles were tested for cytotoxic effects on human epidermoid cancer (HEp-2) cells. Cell viability was assessed by measuring cell concentration of a tetrazolium salt (3-(4,5 dimethyl-2-yl)-5-(3-carboxy-methoxyphenyl)-2-(4-sulfophenyl)-2H-tetrazolium) […]. If cells are viable the mitochondria will reduce the MTT. The cells were grown overnight in minimal essential medium (MEM) supplemented with L-glutamine, Penicillin, streptomycin, and kanamycin. 2.7×10^5 cells/well in 100 μl were seeded into 96-well plates in MEM. Cells were allowed to grow overnight in an incubator at 37° C., with a 5% CO2 humidified atmosphere, until the carboxylated gold nanoparticles were added. […] Treated cells were further incubated at 37° C., 5% CO2 for 24, and 48 hours. At the end of the corresponding incubation time, 15 μl of MTT dye was added into each well and the plates were allowed to incubate for the next 4 hours in the dark. The reaction was then stopped with 100 μl of stop solution. The absorbance of the media was measured at 570 nm on a TECAN Sunrise enzyme-linked immunosorbent assay plate reader (TECAN, US Inc., Durham, N.C., USA). Non-treated cells in growth media were used as a control.

Row | Compound | effect on cell viability
1 | CC[C@H](C)[C@H](NC(=O)[C@H](Cc1ccccc1)NC(=O)[C@H](C)NC(=O)[C@H](CC(C)C)NC(=O)[C@H](CO)NC(=O)[C@H](CCC(N)=O)NC(=O)[C@H](CC(N)=O)NC(=O)[C@@H](NC(=O)[C@H](CCCCN)NC(=O)[C@H](CCC(=O)O)NC(=O)[C@H](CC(N)=O)NC(=O)[C@@H](NC(=O)[C@H](CCC(N)=O)NC(=O)[C@H](CO)NC(=O)[C@@H](NC(=O)[C@@H](N)CO)[C@@H](C)CC)C(C)C)[C@@H](C)CC)C(=O)N[C@@H](CCCNC(=N)N)C(=O)N[C@@H](CCCCN)C(=O)N[C@@H](CO)C(=O)N[C@@H](CC(=O)O)C(=O)O [RF491] (H-SISQVNEKINQSLAFIRKSD-OH) | no significant effect
2 | VFPSDEFDASISQVNEKINQSLAFIRKSDLLHNVNAGKK (respiratory syncytial virus) [RF482] | no significant effect
